In general, EC50 refers to the concentration needed to bring the measured effect to its halfway point. A lower EC50 goes with a more potent agent.

Molecules are shown by their SMILES.

The target of the experiment is human GPR40 receptor (Homo sapiens (Human), UniProt O14842). The experiment in a line: IP1 accumulation measurements using the IPOne assay system. Type of experiment: cell-based. Conditions: 1321N1 cells stably expressing human GPR40 receptor, 1 h stimulation. On the procedure: IP1 accumulation measurements using the IPOne assay system—1321N1 cells stably expressing human GPR40 receptor (Euroscreen, Belgium) are seeded 24 h before the assay in white 384-well plates in culture medium containing 10% FCS, 1% Na-Pyruvate and 400 μg/mL G418. IP1 is assayed according to the manufacturer's description (Cisbio Bioassays, France). In brief, the assay is started by substitution of the culture medium by stimulation buffer (Hepes 10 mM, CaCl2 1 mM, MgCl2 0.5 mM, KCl 4.2 mM, NaCl 146 mM, glucose 5.5 mM and LiCl 50 mM, pH 7.4). Cells are stimulated for 1 h at 37° C., 5% CO2 by addition of the compounds that are diluted in stimulation buffer containing LiCl. Assays are stopped by adding HTRF-conjugates (IP1-d2 and Anti-IP1 cryptate Tb) and lysis buffer, provided by the manufacturer. After an incubation time of 1 h at room temperature plates are measured using an EnVision™, Perkin Elmer. The obtained fluorescence ratios at 665/615 […] are then used to calculate the pEC50 values using Assay Explorer 3.3 Software (Accelrys, Inc.) by interpolation using an IP1 reference curve and subsequent sigmoidal curve fitting allowing for a variable hill slope.
Sequence of human GPR40 receptor (O14842 whole entry): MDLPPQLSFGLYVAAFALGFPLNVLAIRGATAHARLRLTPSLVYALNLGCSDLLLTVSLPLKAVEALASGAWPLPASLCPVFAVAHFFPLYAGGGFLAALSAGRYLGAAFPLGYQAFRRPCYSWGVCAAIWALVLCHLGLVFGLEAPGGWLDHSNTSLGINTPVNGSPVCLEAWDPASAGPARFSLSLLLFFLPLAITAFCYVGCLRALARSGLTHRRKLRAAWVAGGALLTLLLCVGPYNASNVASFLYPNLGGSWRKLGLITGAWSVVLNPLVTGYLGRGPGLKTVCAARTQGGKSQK

In the case of `N#CCCc1ccc(Oc2ccc(F)c3c2CC[C@H]3Oc2ccc3c(c2)OC[C@H]3CC(=O)O)cc1` [Example 61, ((S)-6-{(R)-4-[4-(2-Cyanoethyl)phenoxy]-7-fluoro-indan-1-yloxy}-2,3-dihydrobenzofuran-3-yl)-acetic acid], the EC50 amounted to 13 nM.

As to `O=C(O)C[C@@H]1COc2cc(O[C@@H]3CCc4c(Oc5ccc(C(=O)N6CCOCC6)cc5)ccc(F)c43)ccc21` [Example 64, ((S)-6-{(R)-7-Fluoro-4-[4-(morpholine-4-carbonyl)phenoxy]-indan-1-yloxy}-2,3-dihydrobenzofuran-3-yl)-acetic acid], it took 27 nM to reach a half-maximal effect (EC50). Compared with the last compound, the EC50 is about 2.1-fold higher.

For the compound `CS(=O)(=O)CCCOc1cc(F)c(Oc2ccc(F)c3c2CC[C@H]3Oc2ccc3c(c2)OC[C@H]3CC(=O)O)cc1F` [Example 39, [(S)-6-((R)-4-{2,5-Difluoro-4-[3-(methylsulfonyl)propoxy]phenoxy}-7-fluoro-indan-1-yloxy)-2,3-dihydrobenzofuran-3-yl]-acetic acid], the EC50 amounted to 23 nM.

With `CC(C)(O)CCOc1ccc(Oc2ccc(F)c3c2CC[C@H]3Oc2ccc3c(c2)OC[C@H]3CC(=O)O)c(F)c1` [Example 53, ((S)-6-{(R)-7-Fluoro-4-[2-fluoro-4-(3-hydroxy-3-methylbutoxy)phenoxy]-indan-1-yloxy}-2,3-dihydrobenzofuran-3-yl)-acetic acid], a half-maximal response (EC50) required 7 nM. Compared with the last compound, the EC50 is about 3.3-fold lower.

`CC(C)(O)CCc1ccc(Oc2ccc(F)c3c2CC[C@H]3Oc2ccc3c(c2)OC[C@H]3CC(=O)O)c(C#N)c1` [Example 62, ((S)-6-{(R)-4-[2-Cyano-4-(3-hydroxy-3-methylbutyl)phenoxy]-7-fluoro-indan-1-yloxy}-2,3-dihydrobenzofuran-3-yl)-acetic acid] showed a concentration for a half-maximal effect (EC50) of 12 nM.

Consider `O=C(O)C[C@@H]1COc2cc(O[C@@H]3CCc4c(Oc5ccc(C6CCOCC6)cc5)ccc(F)c43)ccc21` [Example 27, ((S)-6-{(R)-7-Fluoro-4-[4-(tetrahydro-2H-pyran-4-yl)phenoxy]-indan-1-yloxy}-2,3-dihydrobenzofuran-3-yl)-acetic acid], for which the EC50 came out at 9 nM. The EC50 values of the last two compounds are within 1.5-fold of each other.

Compound `CC(C)(O)CCOc1ccc(C#N)c(Oc2ccc(F)c3c2CC[C@H]3Oc2ccc3c(c2)OC[C@H]3CC(=O)O)c1` [Example 42, ((S)-6-{(R)-4-[2-Cyano-5-(3-hydroxy-3-methylbutoxy)-phenoxy]-7-fluoro-indan-1-yloxy}-2,3-dihydrobenzofuran-3-yl)-acetic acid] registered an EC50 of 120 nM.

For the compound `Cc1cc(OCCC(C)(C)O)cc(C)c1Oc1ccc(F)c2c1CC[C@H]2Oc1ccc2c(c1)OC[C@H]2CC(=O)O` [Example 40, ((S)-6-{(R)-7-Fluoro-4-[4-(3-hydroxy-3-methylbutoxy)-2,6-dimethylphenoxy]-indan-1-yloxy}-2,3-dihydrobenzofuran-3-yl)-acetic acid], the EC50 came out at 733 nM.

For the compound `O=C(O)C[C@@H]1COc2cc(O[C@@H]3CCc4c(Oc5ccc(CC6CCOCC6)cc5)ccc(F)c43)ccc21` [Example 35, [(S)-6-((R)-7-Fluoro-4-{4-[(tetrahydro-2H-pyran-4-yl)methyl]phenoxy}-indan-1-yloxy)-2,3-dihydrobenzofuran-3-yl]-acetic acid], a half-maximal response (EC50) required 5 nM.

`N#Cc1cc(CN2CCOCC2)ccc1Oc1ccc(F)c2c1CC[C@H]2Oc1ccc2c(c1)OC[C@H]2CC(=O)O` [Example 70, ((S)-6-{(R)-4-[2-Cyano-4-(morpholin-4-ylmethyl)phenoxy]-7-fluoro-indan-1-yloxy}-2,3-dihydrobenzofuran-3-yl)-acetic acid] showed a 50% effective concentration (EC50) of 44 nM.

In turn, `Cc1nc(-c2ccc(Oc3ccc(F)c4c3CC[C@H]4Oc3ccc4c(c3)OC[C@H]4CC(=O)O)cc2)cs1` [Example 32, ((S)-6-{(R)-7-Fluoro-4-[4-(2-methylthiazol-4-yl)phenoxy]-indan-1-yloxy}-2,3-dihydrobenzofuran-3-yl)-acetic acid] displayed an EC50 of 13 nM.

With `O=C(O)C[C@@H]1COc2cc(O[C@@H]3CCc4c(Oc5ccc(CN6CCOCC6)cc5)ccc(F)c43)ccc21` [Example 5, {(S)-6-[(R)-7-Fluoro-4-(4-morpholin-4-ylmethyl-phenoxy)-indan-1-yloxy]-2,3-dihydro-benzofuran-3-yl}-acetic acid], the half-maximal effective concentration (EC50) was 25 nM.

Turning to `CC(=O)NCc1cccc(Oc2ccc(F)c3c2CC[C@H]3Oc2ccc3c(c2)OC[C@H]3CC(=O)O)c1` [Example 7, [(S)-6-{(R)-4-[3-(Acetylamino-methyl)-phenoxy]-7-fluoro-indan-1-yloxy}-2,3-dihydro-benzofuran-3-yl]-acetic acid], the response was half-maximal at 55 nM (EC50).

In the case of `O=C(O)C[C@@H]1COc2cc(O[C@@H]3CCc4c(Oc5ccc6c(c5)OCO6)ccc(F)c43)ccc21` [Example 25, {(S)-6-[(R)-4-(Benzo[d][1,3]dioxol-5-yloxy)-7-fluoro-indan-1-yloxy]-2,3-dihydrobenzofuran-3-yl}-acetic acid], it took 6 nM to reach a half-maximal effect (EC50).

`O=C(O)C[C@@H]1COc2cc(O[C@@H]3CCc4c(Oc5cc(OC6CCOCC6)ccc5F)ccc(F)c43)ccc21` [Example 46, ((S)-6-{(R)-7-Fluoro-4-[2-fluoro-5-(tetrahydro-2H-pyran-4-yloxy)phenoxy]-indan-1-yloxy}-2,3-dihydrobenzofuran-3-yl)-acetic acid] registered an EC50 of 62 nM.

Consider `CC(C)(O)CCOc1ccc(Oc2ccc(F)c3c2CC[C@H]3Oc2ccc3c(c2)OC[C@H]3CC(=O)O)c(C#N)c1` [Example 47, ((S)-6-{(R)-4-[2-Cyano-4-(3-hydroxy-3-methylbutoxy)phenoxy]-7-fluoro-indan-1-yloxy}-2,3-dihydrobenzofuran-3-yl)-acetic acid], for which the EC50 is 8 nM.

For `CC(C)(O)CCOc1cc(F)c(Oc2ccc(F)c3c2CC[C@H]3Oc2ccc3c(c2)OC[C@H]3CC(=O)O)cc1F` [Example 34, ((S)-6-{(R)-4-[2,5-Difluoro-4-(3-hydroxy-3-methylbutoxy)phenoxy]-7-fluoro-indan-1-yloxy}-2,3-dihydrobenzofuran-3-yl)-acetic acid], the 50% effective concentration (EC50) was 6 nM. The EC50 values of the last two compounds are within 1.5-fold of each other.

`O=C(O)C[C@@H]1COc2cc(O[C@@H]3CCc4c(Oc5cccc(N6CCCC6=O)c5)ccc(F)c43)ccc21` [Example 57, ((S)-6-{(R)-7-Fluoro-4-[3-(2-oxopyrrolidin-1-yl)phenoxy]-indan-1-yloxy}-2,3-dihydrobenzofuran-3-yl)-acetic acid] registered a concentration for a half-maximal effect (EC50) of 4 nM.

For `CC(C)(O)CCCc1ccc(C#N)c(Oc2ccc(F)c3c2CC[C@H]3Oc2ccc3c(c2)OC[C@H]3CC(=O)O)c1` [Example 41, ((S)-6-{(R)-4-[2-Cyano-5-(4-hydroxy-4-methylpentyl)phenoxy]-7-fluoro-indan-1-yloxy}-2,3-dihydrobenzofuran-3-yl)-acetic acid], the 50% effective concentration (EC50) is 85 nM.

As to `CC(C)(O)COc1cc(Oc2ccc(F)c3c2CC[C@H]3Oc2ccc3c(c2)OC[C@H]3CC(=O)O)ccc1C#N` [Example 52, ((S)-6-{(R)-4-[4-Cyano-3-(2-hydroxy-2-methylproproxy)phenoxy]-7-fluoro-indan-1-yloxy}-2,3-dihydrobenzofuran-3-yl)-acetic acid], a half-maximal effect (EC50) was put at 31 nM.

In turn, `Cn1nccc1-c1ccc(Oc2ccc(F)c3c2CC[C@H]3Oc2ccc3c(c2)OC[C@H]3CC(=O)O)c(C#N)c1` [Example 48, ((S)-6-{(R)-4-[2-Cyano-4-(1-methyl-1H-pyrazol-5-yl)phenoxy]-7-fluoro-indan-1-yloxy)-2,3-dihydrobenzofuran-3-yl}-acetic acid] yielded an EC50 of 9 nM.

In turn, `Cn1nnc(-c2ccc(Oc3ccc(F)c4c3CC[C@H]4Oc3ccc4c(c3)OC[C@H]4CC(=O)O)cc2)n1` [Example 15, [(S)-6-{(R)-7-Fluoro-4-[4-(2-methyl-2H-tetrazol-5-yl)-phenoxy]-indan-1-yloxy}-2,3-dihydro-benzofuran-3-yl]-acetic acid] yielded an EC50 of 3 nM. This EC50 is about 3-fold lower than that of the compound before.

In turn, `N#CCc1ccc(Oc2ccc(F)c3c2CC[C@H]3Oc2ccc3c(c2)OC[C@H]3CC(=O)O)cc1` [Example 60, ((S)-6-{(R)-4-[4-(Cyanomethyl)phenoxy]-7-fluoro-indan-1-yloxy}-2,3-dihydrobenzofuran-3-yl)-acetic acid] came in with a half-maximal effective concentration (EC50) of 20 nM.

`O=C(O)C[C@@H]1COc2cc(O[C@@H]3CCc4c(Oc5ccnc(O[C@H]6CCOC6)c5)ccc(F)c43)ccc21` [Example 16, {(S)-6-[(R)-7-fluoro-4-{2-[(S)-tetrahydro-furan-3-yloxy]-pyridin-4-yloxy}-indan-1-yloxy]-2,3-dihydro-benzofuran-3-yl}-acetic acid] displayed an EC50 of 9 nM.

`Cc1noc(C)c1-c1ccc(Oc2ccc(F)c3c2CC[C@H]3Oc2ccc3c(c2)OC[C@H]3CC(=O)O)c(F)c1` [Example 54, ((S)-6-{(R)-4-[4-(3,5-Dimethylisoxazol-4-yl)-2-fluorophenoxy]-7-fluoro-indan-1-yloxy}-2,3-dihydrobenzofuran-3-yl)-acetic acid] registered an EC50 of 9 nM.

As for `N#Cc1cc(Oc2ccc(F)c3c2CC[C@H]3Oc2ccc3c(c2)OC[C@H]3CC(=O)O)ccc1O[C@@H]1CCOC1` [Example 43, ((S)-6-{(R)-4-[3-Cyano-4-((R)-tetrahydrofuran-3-yloxy)phenoxy]-7-fluoro-indan-1-yloxy}-2,3-dihydrobenzofuran-3-yl)-acetic acid], the EC50 was found to be 18 nM.

For the compound `Cc1noc(C)c1-c1ccc(Oc2ccc(F)c3c2CC[C@H]3Oc2ccc3c(c2)OC[C@H]3CC(=O)O)c(C#N)c1` [Example 49, ((S)-6-{(R)-4-[2-Cyano-4-(3,5-dimethylisoxazol-4-yl)phenoxy]-7-fluoro-indan-1-yloxy}-2,3-dihydrobenzofuran-3-yl)-acetic acid], a half-maximal effect (EC50) was put at 17 nM.
